For one compound, IC50 results are on record in patent publication US7265260B2, “Transgenic non-human mammals expressing constitutively activated tyrosine kinase receptors” (Bristol-Myers Squibb Company, priority 2002, dated 2007).

The assay relates to IGF1R Sal tumor cell line. Description: Cytotoxicity assay: inhibition of cell proliferation by [3H]-thymidine incorporation. The settings on record: IGF-1R-Sal, IGF1R Sal (CD8-IGF1R) cell line from transgenic mouse xenograft tumor, 72 h exposure, read-out: Cytotoxicity Assay IC50 (nM) against IGF1R Sal tumor cell line. The assay is classed as cell-based. How it is done: The proliferative activity of two IGF1R inhibitors in cells was evaluated in vitro against a cell line derived from a xenograft tumor generated in a transgenic mouse, IGF1R Sal (CD8-IGF1R), which was engineered to overexpress the catalytic domain of the human IGF1R. The two IGF1R inhibitors evaluated were a benzimidazole compound as described in WO02/079192 and U.S. application Ser. No. 10/263,448, hereby incorporated by reference, and paclitaxel. Inhibition of cellular proliferation was also determined in a variety of human tumor xenograft cell lines including, Colo205 (colon), Geo (colon), RD1 (rhabdomyosarcoma), H3396 (breast), and MDA PCa2b (prostate). Proliferation was evaluated by incorporation of [^3H]-thymidine into DNA after a 72 hour exposure to reagents. Cells were plated at 1,500 cells/well in 96-well microtiter plates and 24 hours later cells were exposed to a range of drug concentrations. After 72 hours incubation at 37° C., cells were pulsed with 4 μCi/ml [6-^3H] thymidine (Amersham Pharmacia Biotech, UK) for 3 hours, trypsinized, harvested onto UniFilter-96, GF/B plates (PerkinElmer, Boston, Mass.), and scintillation was measured on a TopCount.NXT (Packard, Conn.). Results are expressed as an IC50, which is the drug concentration required to inhibit cell proliferation by 50% to that of untreated control cells.

With `CC(=O)O[C@H]1C(=O)[C@@]2(C)[C@H]([C@H](OC(=O)c3ccccc3)[C@]3(O)C[C@H](OC(=O)[C@H](O)[C@@H](NC(=O)c4ccccc4)c4ccccc4)C(C)=C1C3(C)C)[C@]1(OC(C)=O)CO[C@@H]1C[C@@H]2O` [paclitaxel], the IC50 came to 2.9 nM.
